PubChem BioAssay (NCI)
Several values for one entry are separate records, joined by “and”; a condition that tells them apart may be missing. Identical values can stand only once.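 Results reflect a 48-hour exposure of cells in 96-well plates to compound at five concentrations. GI50: concentration for 50% inhibition of growth. TGI: total growth inhibition.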

Experiments:
Assay in all cases: NCI anticancer screen, dose series, 48 h
SNB-75 CNS = test system: SNB-75 CNS
MCF7 breast = test system: MCF7 breast
OVCAR-4 ovarian = test system: OVCAR-4 ovarian
EKVX NSCLC = test system: EKVX NSCLC
TK-10 renal = test system: TK-10 renal
MALME-3M melanoma = test system: MALME-3M melanoma
SN12C renal = test system: SN12C renal
PC-3 prostate = test system: PC-3 prostate
A549 NSCLC = test system: A549 NSCLC
HCC-2998 colon = test system: HCC-2998 colon

Compound | GI50 (SNB-75 CNS) | TGI (SNB-75 CNS) | GI50 (MCF7 breast) | TGI (MCF7 breast) | GI50 (OVCAR-4 ovarian) | TGI (OVCAR-4 ovarian) | GI50 (EKVX NSCLC) [µM] | TGI (EKVX NSCLC) [µM] | GI50 (TK-10 renal) | TGI (TK-10 renal) | GI50 (MALME-3M melanoma) | TGI (MALME-3M melanoma) | GI50 (SN12C renal) | TGI (SN12C renal) [µM] | GI50 (PC-3 prostate) | TGI (PC-3 prostate) [µM] | GI50 (A549 NSCLC) | TGI (A549 NSCLC) [µM] | GI50 (HCC-2998 colon) | TGI (HCC-2998 colon)
CCOc1cccc(/C=N/NC(=O)Cc2ccc(Nc3ccnc(C(F)(F)F)c3)cc2)c1O | 12.4 µM | 55 µM | 2.39 µM | > 100 µM | 0.824 µM | > 100 µM | 3.87 | > 100 | 4.01 µM | 44.5 µM | 2.13 µM | 18.7 µM | 4.58 µM | > 100 | 1.88 µM | 21.6 | 4.09 µM | > 100 | 6.78 µM | 93.4 µM
NC(=O)c1c(NC(=O)c2cccc(C(F)(F)F)c2)sc2c1CCC(=O)C2 | 0.507 µM | 3.84 µM | 0.203 µM | > 100 µM | 0.292 µM | 1.25 µM | 2.12 | > 100 | 0.753 µM | 13.3 µM | 0.869 µM | 3.73 µM | 0.392 µM | > 100 | 0.218 µM | 2.1 | 1.88 µM | > 100 | 2.59 µM | > 76.9 µM
COc1ccc(-c2cn(-c3cc(OC)c(OC)c(OC)c3)c(=O)n2-c2ccccc2)cc1 | 30.7 µM | > 100 µM | 86 µM | > 100 µM | 51.7 µM | > 100 µM | > 100 | > 100 | > 100 µM | > 100 µM | 38.5 µM | > 100 µM | 84.3 µM | > 100 | > 100 µM | > 100 | > 100 µM | > 100 | > 100 µM | > 100 µM
COC12C=C/C(=C(/C(=O)OCc3csc(SC)n3)C(=O)CCCCCCCCC3(OC)C=C/C(=C(/C(=O)OCc4cnc(SC)s4)C(=O)CCCCCCCC1)O3)O2 (centres undefined) | 7.61 µM | 28.9 µM | 1.13 µM | > 100 µM | 3.19 µM | > 100 µM | 6.38 | > 100 | 15.8 µM | 74.8 µM | 3.84 µM | 39.7 µM | 3.63 µM | > 100 | 4.16 µM | > 100 | 4.65 µM | > 100 | 2.34 µM | 5.11 µM
CC(C)c1ccc2c(c1)c(SC(C)(C)C)c(CC(C)(C)C(=O)O)n2Cc1ccc(Cl)cc1 | 9.76 µM | 22.3 µM | 5.14 µM | 19.4 µM | 16.9 µM | 49 µM | 4.42 | 13 | 15.2 µM | 30.6 µM | 17.6 µM | 34 µM | 12.2 µM | 25.3 | 8.18 µM | 23.4 | 3.27 µM | 14.1 | 7.71 µM | 20.4 µM
COc1ccc2c(c1)c(-c1cc(-c3cn(C)c4ccc(OC)cc34)[nH]n1)cn2C | > 100 µM | > 100 µM | > 100 µM | > 100 µM | > 100 µM | > 100 µM | > 100 | > 100 | > 100 µM | > 100 µM | > 100 µM | > 100 µM | > 100 µM | > 100 | > 100 µM | > 100 | > 100 µM | > 100 | > 100 µM | > 100 µM
CCCCCCCCCCCCNC(=O)[C@H]1CSC(c2ccsc2)N1 (some centres undefined) | 0.938 µM | 1.67 µM | 0.879 µM | 1.71 µM | 0.911 µM | 1.73 µM | 0.991 | 1.85 | 0.897 µM | 1.63 µM | 1.14 µM | 2.12 µM | 0.911 µM | 1.64 | 0.837 µM | 1.56 | 6.77 µM | 13.7 | 0.955 µM | 2.15 µM
COc1ccc2nc3cc(Cl)ccc3c(Nc3ccc(O)c(CN4CCCC4)c3)c2c1 | 1.99 µM | 3.79 µM | 1.32 µM | 2.87 µM | 2.7 µM | 8.24 µM | 3.18 | 14.4 | 2.29 µM | 4.75 µM | 2.41 µM | 4.29 µM | 1.84 µM | 4.56 | 3.28 µM | 11 | 1.99 µM | 4.06 | 1.67 µM | 3.16 µM
CC(=O)c1c(Nc2ccc(F)c(F)c2F)[nH]c2c(F)cc(F)cc2c1=O | 0.289 µM | 8.52 µM | 0.283 µM | 13.5 µM | 0.32 µM | > 100 µM | 0.303 | > 40.4 | 0.503 µM | 47.8 µM | 0.207 µM | 0.643 µM | 0.277 µM | 3.45 | 0.252 µM | 1.33 | 0.382 µM | > 41.8 | 0.378 µM | 13.6 µM
Oc1cccc(-c2nc(N3CCOCC3)c3oc4ncccc4c3n2)c1 | 0.0401 µM and < 0.0151 µM | 0.311 µM and 0.114 µM | 0.27 µM and 0.18 µM | > 100 µM and 11.9 µM | 0.354 µM and 0.228 µM | 4.12 µM and 2.9 µM | 0.213 | 0.82 | 1.26 µM and 1.51 µM | 4.01 µM and 4.58 µM | 0.0373 µM and 0.0287 µM | 0.395 µM and 0.264 µM | 0.0923 µM and 0.136 µM | > 100 | 0.0505 µM and 0.0462 µM | > 100 | 0.317 µM and 0.225 µM |  | 1.85 µM and 0.401 µM | 8.87 µM and > 33.9 µM
